Results on eleven compounds are retold here after patent US9708275B2, “Heterocyclic compounds and methods for their use” (Novartis AG, priority 2012, dated 2017).

As usually defined, the IC50 is the point on the concentration scale where inhibition reaches its midpoint.

For the test, the target named is AT2 receptor (Homo sapiens (Human), UniProt P50052). The test can be described thus: AT2 receptor binding assay ([125I]-CGP42112A, HEK293/AT2 receptor cell membranes). The following applies: displacement of [125I]-CGP42112A, RT 1.5 hrs. The method, then: 1. Trypsin-EDTA (for preparation of 100 mL) • Trypsin 0.25 g • 2% EDTA 2 mL • PBS 98 mL • Dissolve trypsin in 2% EDTA and PBS completely; sterilize the solution by passing through a […] membrane filter; store at 4° C.
Sequence of AT2 receptor (P50052 whole entry, species assumed): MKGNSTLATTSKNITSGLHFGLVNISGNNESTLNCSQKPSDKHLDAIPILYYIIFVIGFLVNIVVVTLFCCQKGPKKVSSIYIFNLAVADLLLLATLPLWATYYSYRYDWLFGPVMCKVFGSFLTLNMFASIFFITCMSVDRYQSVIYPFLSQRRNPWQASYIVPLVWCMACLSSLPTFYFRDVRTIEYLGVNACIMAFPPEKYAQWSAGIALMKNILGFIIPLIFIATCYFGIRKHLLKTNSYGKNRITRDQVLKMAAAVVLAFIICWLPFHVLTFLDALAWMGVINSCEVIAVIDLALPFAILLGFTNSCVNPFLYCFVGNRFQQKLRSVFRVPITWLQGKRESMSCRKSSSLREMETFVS
2. DMEM medium (for preparation of 1 L) • The powder was dissolved into 950 mL of distilled water with gentle stirring until the solution becomes clear. • Add NaHCO3 1.176 g for DMEM medium. • Adjust pH of medium to 0.2-0.3 below final working pH using 1 M NaOH or 1 M HCl. Add slowly with stirring. • Dilute to 1 liter with ddH2O. • Sterilize the medium immediately by filtration. • Store at 4° C.
3. TE buffer • 20 mM Tris-HCl, pH 7.4, • 5 mM EDTA
4. Binding Assay Buffer • 50 mM Hepes, pH 7.4 • 5 mM MgCl2 • 1 mM CaCl2 • 0.2% BSA
5. Wash Buffer • 50 mM Hepes, pH 7.4 Procedures for HEK293/AT2 Receptor Transient Cell Transfection • Cells were plated into 150 mm dish at 50% density for transient transfection. Cells were ready for transfection after overnight incubation (the confluence reaches around 80%). • 75 μL Lipofectamine™2000 diluted in 6.25 mL OptiMEM I Reduced Serum Medium, was mixed gently, and incubated at room temperature for 5 minutes. 50 μg expression plasmid DNA diluted in 6.25 mL OptiMEM I Reduced Serum Medium without serum was mixed gently. • After the 5 minute incubation, the diluted DNA was combined with the diluted Lipofectamine™2000 (total volume is 12.5 mL). The mixture was mixed gently and incubated for 30 minutes at room temperature to allow the DNA-Lipofectamine™2000 complexes to form. • The 12.5 mL DNA-Lipofectamine™2000 complexes were added into the 150 mm dish and mixed gently by rocking the dish back and forth. • The cells were incubated at 37° C. with 5% CO2 for 48 hours. • Cells were collected and stored frozen at −80° C. Procedures for HEK293/AT2 Receptor Cell Membrane Preparation • Frozen HEK293/AT2 receptor (transient transfected) cells were homogenized in ice cold TE buffer for 10 s. • The homogenate was centrifuged at 25,000 g for 30 minutes. • The pellet was resuspended in ice cold tissue buffer. • Protein concentrations were determined using Bradford assay method with BSA as standard. • The membrane protein was frozen under −80° C. Compound Preparation
Solutions of all compounds were prepared by microplate liquid handling equipment such as Janus or Precision 2000. Compounds, dissolved in DMSO were stored in a Freezer. Compounds were prepared from 30 mM in 100% DMSO.
Step 1: Dose plate preparation (96 well plate)
• Add the 3 μL [30 mM] compound stock to column 1 on the plate. • Add 15 μL of 100% DMSO to column 1. • Add 10.81 μL of 100% DMSO to column 2-12. • Transfer 5 μL from column 1 into column 2 (half log dilution). • Transfer 5 μL from column 2 into column 3 (half log dilution). • Transfer 5 μL from column 3 into column 4 (half log dilution). • Transfer 5 μL from column 4 into column 5 (half log dilution). • Transfer 5 μL from column 5 into column 6 (half log dilution). • Transfer 5 μL from column 6 into column 7 (half log dilution). • Transfer 5 μL from column 7 into column 8 (half log dilution). • Transfer 5 μL from column 8 into column 9 (half log dilution). • Transfer 5 μL from column 9 into column 10 (half log dilution) • Transfer 5 μL from column 10 into column 11 (half log dilution) • Transfer 5 μL from column 11 into column 12 (half log dilution).
All the compounds were diluted using Precision 2000 microplate liquid handling equipment. The top concentration of compound was 5 mM with 100% DMSO.
Step 2: Working plate preparation (96 well plate)
• Compounds were diluted 50-fold with buffer. • 49 μL buffer was added to the well of 96 well plate. • 1 μL compound solution from dose plate was transferred to the corresponding well of working plate. • The top concentration of compound was 100 μM with 2% DMSO. Step 3: Assay plate preparation (96 well plate)
15 μL of compound solution was transferred from each well of working plate to the well of assay plate by Janus. […]
On the technique in general: Displacement assays read how much labelled ligand stays bound in the presence of the test substance.
For `O=C(O)[C@@H]1CN(c2ccccc2)CCN1C(=O)C(c1ccccc1)c1ccccc1` [Compound 4, (S)-1-(2,2-diphenylacetyl)-4-phenylpiperazine-2-carboxylic acid], the half-maximal inhibitory concentration (IC50) came to 408 nM. Under `O=C(O)[C@@H]1CN(Cc2ccccc2)CCN1C(=O)C(c1ccccc1)c1ccccc1` [Compound 5, (S)-4-benzyl-1-(2,2-diphenylacetyl)piperazine-2-carboxylic acid] stands 383 nM; under `O=C(O)[C@@H]1CN(c2cc(-c3ccccc3)n(-c3ccccc3)n2)CCN1C(=O)C(c1ccccc1)c1ccccc1` [Compound 6, (S)-4-(1,5-diphenyl-1H-pyrazol-3-yl)-1-(2,2-diphenylacetyl)-piperazine-2-carboxylic acid], 3040 nM. As for `Cc1cc(N2CCN(C(=O)C(c3ccccc3)c3ccccc3)[C@H](C(=O)O)C2)n(-c2ccccc2)n1` [Compound 7, (3)-1-(2,2-diphenylacetyl)-4-(3-methyl-1-phenyl-1H-pyrazol-5-yl)piperazine-2-carboxylic acid], the figure is 155 nM; as for `O=C(O)[C@@H]1CN(CCc2ccccc2)CCN1C(=O)C(c1ccccc1)c1ccccc1` [Compound 8, (S)-1-(2,2-diphenylacetyl)-4-phenethylpiperazine-2-carboxylic acid], 1270 nM. Under `O=C(O)[C@@H]1CN(C/C=C/c2ccccc2)CCN1C(=O)C(c1ccccc1)c1ccccc1` [Compound 9, (S)-4-cinnamyl-1-(2,2-diphenylacetyl)piperazine-2-carboxylic acid] stands 4100 nM; under `O=C(O)[C@@H]1CN(CCCc2ccccc2)CCN1C(=O)C(c1ccccc1)c1ccccc1` [Compound 10, (S)-1-(2,2-diphenylacetyl)-4-(3-phenylpropyl)piperazine-2-carboxylic acid], 517 nM; under `Cc1cc(N2CCN(C(=O)C(c3ccccc3)c3ccccc3)[C@H](C(=O)O)C2)n(Cc2ccccc2)n1` [Compound 16, (S)-4-(1-benzyl-3-methyl-1H-pyrazol-5-yl)-1-(2,2-diphenylacetyl)piperazine-2-carboxylic acid], 40.3 nM. Consider `O=C(O)[C@@H]1CN(c2cc(C(F)(F)F)nn2Cc2ccccc2)CCN1C(=O)C(c1ccccc1)c1ccccc1` [Compound 23, (S)-4-(1-benzyl-3-(-trifluoromethyl)-1H-pyrazol-5-yl)-1-(2,2-diphenylacetyl)piperazine-2-carboxylic acid], for which the IC50 came to 93.8 nM. As for `O=C(O)[C@@H]1CN(CC#Cc2ccccc2)CCN1C(=O)C(c1ccccc1)c1ccccc1` [Compound 24, (S)-1-(2,2-diphenylacetyl)-4-(3-phenylprop-2-yn-1-yl)piperazine-2-carboxylic acid], the figure is 4160 nM; as for `O=C(O)[C@@H]1CN(CCC#Cc2ccccc2)CCN1C(=O)C(c1ccccc1)c1ccccc1` [Compound 26, (S)-1-(2,2-diphenylacetyl)-4-(4-phenylbut-3-yn-1-yl)piperazine-2-carboxylic acid], 1320 nM.
